Test results taken from US4594319A, “Protein kinase enzyme AUT-PK 500 and a radioimmunoassay for detection of neoplasia” (The University of Tennessee Research Corp., priority 1984, dated 1986).
pEC50: −log10 of the molar value.

Experiments:
AUT-PK 500 [1] = test: Protein kinase assay: autophosphorylation of AUT-PK 500 (32P incorporation from [gamma-32P] ATP); format: biochemical, rat; conditions: for effect on the autophosphorylation of AUT-PK 500: filter assay or radioautography of SDS gel; for ^32 P Incorporated (autophosphorylation of AUT-PK 500): 1 microgram enzyme; for effect on the AUT-PK 500 activity: monovalent cations, concentrations of up to 100 mM; for concentration giving peak activity of the enzyme / maximal activation, relative to that obtained by Mn^2+ or Mg^2+ / pEC50: divalent cations; for pEC50: read-out: concentration resulting in half-maximal stimulation of AUT-PK 500; for influence of sulfhydryl group inhibitors on AUT-PK 500 activity: see Table IV
Protocol: ATP into an appropriate substrate. […] ATP (400-600 cpm/pmol) and an appropriate amount of the enzyme. The reaction was incubated at 37° C. for one minute or as specified under experimental conditions, and was terminated by the addition of 2 ml of ice-cold 10% trichloroacetic acid followed by the addition of 500 micrograms of bovine serum albumin. The precipitate was immediately filtered on a GF/C filter and washed three times with 2 ml of ice-cold 10% trichloroacetic acid. The filter was dried and counted in a cocktail of Omnifluor in toluene. […]
Autophosphorylation of AUT-PK 500 was also analyzed by one-dimensional SDS-polyacrylamide gel electrophoresis. […] ATP. […] The phosphorylated sample was applied to 6% acrylamide containing 0.1% SDS and 0.3% Bis. Electrophoresis was conducted in the presence of Tris-glycine buffer, pH 8.3.

AUT-PK 500 [2] = test: Phosphorylation of exogenous substrates by AUT-PK 500; format: biochemical, rat
Protocol: Protein kinase activity was measured by the incorporation of ^32 P from [gamma-^32 P] ATP into an appropriate substrate. The 250-microliter reaction mixture contained 20 mM Tris-HCl, pH 7.5, 10 mM Mg^2+, 2.5×10^-6 M [gamma-^32 P] ATP (400-600 cpm/pmol) and an appropriate amount of the enzyme. The reaction was incubated at 37° C. for one minute or as specified under experimental conditions, and was terminated by the addition of 2 ml of ice-cold 10% trichloroacetic acid followed by the addition of 500 micrograms of bovine serum albumin. The precipitate was immediately filtered on a GF/C filter and washed three times with 2 ml of ice-cold 10% trichloroacetic acid. The filter was dried and counted in a cocktail of Omnifluor in toluene.
Most of the known cyclic nucleotide-dependent or -independent protein kinases catalyze the phosphorylation of one or more of the commonly used exogenous substrates such as histone, casein, protamine, and phosvitin. […] In order to confirm this conclusion, AUT-PK 500 was incubated with [gamma-^32 P] ATP and histone in the presence or absence of cyclic AMP, then subjected to SDS-polyacrylamide gel electrophoresis and analyzed by radioautography.

[3] = concentrations of up to 200 micrograms/ml
[4] = Table II, addition 10 micrograms, enzyme alone 16,000 cpm
[5] = Table IV, -SH group inhibitor 5 mM, enzyme alone 18,500 cpm

polyarginine
effect on the autophosphorylation of AUT-PK 500 (AUT-PK 500 [1]; [3]): No effect

Nc1nc2c(ncn2[C@@H]2O[C@H](COP(=O)(O)OP(=O)(O)OP(=O)(O)O)[C@@H](O)[C@H]2O)c(=O)[nH]1 [GTP]
effect on the ATP-dependent rate of self-phosphorylation (AUT-PK 500 [1]): did not affect
incorporation of radioactivity with [gamma-^32 P] GTP as phosphate donor (AUT-PK 500 [1]; GTP in place of ATP): no incorporation of radioactivity was observed

NCCCCN [putrescine]
effect on the autophosphorylation of AUT-PK 500 (AUT-PK 500 [1]; polyamines each at 1 mM): No effect

Protamine
effect of exogenous substrate proteins on the phosphorylation of AUT-PK 500 (AUT-PK 500 [1]; Table II): None of these proteins affected the phosphorylation
^32 P Incorporated (autophosphorylation of AUT-PK 500) (AUT-PK 500 [1]; [4]): 12,000 cpm

[K+] [potassium]
effect on the AUT-PK 500 activity (AUT-PK 500 [1]): no significant effect

[Co+2] [Co^2+]
concentration giving peak activity of the enzyme (AUT-PK 500 [1]): 5 mM
maximal activation, relative to that obtained by Mn^2+ or Mg^2+ (AUT-PK 500 [1]): 40%
pEC50 (AUT-PK 500 [1]): 2.60

Casein
effect of exogenous substrate proteins on the phosphorylation of AUT-PK 500 (AUT-PK 500 [1]; Table II): None of these proteins affected the phosphorylation
^32 P Incorporated (autophosphorylation of AUT-PK 500) (AUT-PK 500 [1]; [4]): 10,000 cpm
phosphorylation of the substrate by AUT-PK 500 (AUT-PK 500 [2]): did not phosphorylate

[Mn+2] [Mn^2+]
concentration giving peak activity of the enzyme (AUT-PK 500 [1]): 5 mM
pEC50 (AUT-PK 500 [1]): 2.60

[Sr+2] [Sr^2+]
concentration giving peak activity of the enzyme (AUT-PK 500 [1]): 50 mM
maximal activation, relative to that obtained by Mn^2+ or Mg^2+ (AUT-PK 500 [1]): of the same order
pEC50 (AUT-PK 500 [1]): 2.60

polylysine
effect on the autophosphorylation of AUT-PK 500 (AUT-PK 500 [1]; [3]): No effect

O=C(O)CN(CCOCCOCCN(CC(=O)O)CC(=O)O)CC(=O)O [EGTA, 1,2-di(2-aminoethoxy)ethane-N,N,N',N'-tetraacetic acid]
inhibition of AUT-PK 500 activity (AUT-PK 500 [1]; EGTA (Table III, 0.8 mM), explained by partial chelation of Mg^2+): 23.2%
^32 P Incorporated (autophosphorylation of AUT-PK 500) (AUT-PK 500 [1]; Table III, 0.8 mM, enzyme alone 18,500 cpm): 14,200 cpm

Nc1nc2c(ncn2[C@@H]2O[C@@H]3COP(=O)(O)O[C@H]3[C@H]2O)c(=O)[nH]1 [Cyclic GMP]
dependence of AUT-PK 500 activity on cyclic nucleotides / blockage by heat-stable inhibitor (AUT-PK 500 [1]): independent
^32 P Incorporated (autophosphorylation of AUT-PK 500) (AUT-PK 500 [1]; Table II, cyclic nucleotide 1 microM, enzyme alone 16,000 cpm): 16,300 cpm

[Na+] [sodium]
effect on the AUT-PK 500 activity (AUT-PK 500 [1]): no significant effect

NCCCNCCCCNCCCN [spermine]
effect on the autophosphorylation of AUT-PK 500 (AUT-PK 500 [1]; polyamines each at 1 mM): No effect

CCN1C(=O)C=CC1=O [N--Ethylmaleimide, N-ethylmaleimide]
^32 P Incorporated (autophosphorylation of AUT-PK 500) (AUT-PK 500 [1]; [5]): 18,000 cpm
influence of sulfhydryl group inhibitors on AUT-PK 500 activity (AUT-PK 500 [1]): did not influence

Calmodulin
^32 P Incorporated (autophosphorylation of AUT-PK 500) (AUT-PK 500 [1]; Table III, 100 microgram/ml, enzyme alone 18,500 cpm): 17,400 cpm

[Ca+2] [Ca^2+]
^32 P Incorporated (autophosphorylation of AUT-PK 500) (AUT-PK 500 [1]; Table III, 0.4 mM, enzyme alone 18,500 cpm): 17,000 cpm
effect on AUT-PK 500 activity (AUT-PK 500 [1]; calcium or calcium-calmodulin, Table III): not affected
concentration giving peak activity of the enzyme (AUT-PK 500 [1]): 20 mM
maximal activation, relative to that obtained by Mn^2+ or Mg^2+ (AUT-PK 500 [1]): 60%

lithium
effect on the AUT-PK 500 activity (AUT-PK 500 [1]): no significant effect

NC(=O)CI [Iodoacetamide]
^32 P Incorporated (autophosphorylation of AUT-PK 500) (AUT-PK 500 [1]; [5]): 18,600 cpm

O=S(=O)(O)c1cc[c]([Hg][Cl])cc1 [p-chloromercuriphenylsulfonic acid]
^32 P Incorporated (autophosphorylation of AUT-PK 500) (AUT-PK 500 [1]; [5]): 18,300 cpm
influence of sulfhydryl group inhibitors on AUT-PK 500 activity (AUT-PK 500 [1]): did not influence

NCCCCNCCCN [spermidine]
effect on the autophosphorylation of AUT-PK 500 (AUT-PK 500 [1]; polyamines each at 1 mM): No effect

[Mg+2] [Mg^2+]
concentration giving peak activity of the enzyme (AUT-PK 500 [1]): 10 mM
pEC50 (AUT-PK 500 [1]): 2.60
